Source: US10072011B2, “Substituted bridged urea analogs as sirtuin modulators” (GlaxoSmithKline Intellectual Property (No.2) Limited, priority 2014, dated 2018)

Molecular target: T1, SIRT1 (Homo sapiens, UniProt Q96EB6)
T1 sequence (Q96EB6 1-747): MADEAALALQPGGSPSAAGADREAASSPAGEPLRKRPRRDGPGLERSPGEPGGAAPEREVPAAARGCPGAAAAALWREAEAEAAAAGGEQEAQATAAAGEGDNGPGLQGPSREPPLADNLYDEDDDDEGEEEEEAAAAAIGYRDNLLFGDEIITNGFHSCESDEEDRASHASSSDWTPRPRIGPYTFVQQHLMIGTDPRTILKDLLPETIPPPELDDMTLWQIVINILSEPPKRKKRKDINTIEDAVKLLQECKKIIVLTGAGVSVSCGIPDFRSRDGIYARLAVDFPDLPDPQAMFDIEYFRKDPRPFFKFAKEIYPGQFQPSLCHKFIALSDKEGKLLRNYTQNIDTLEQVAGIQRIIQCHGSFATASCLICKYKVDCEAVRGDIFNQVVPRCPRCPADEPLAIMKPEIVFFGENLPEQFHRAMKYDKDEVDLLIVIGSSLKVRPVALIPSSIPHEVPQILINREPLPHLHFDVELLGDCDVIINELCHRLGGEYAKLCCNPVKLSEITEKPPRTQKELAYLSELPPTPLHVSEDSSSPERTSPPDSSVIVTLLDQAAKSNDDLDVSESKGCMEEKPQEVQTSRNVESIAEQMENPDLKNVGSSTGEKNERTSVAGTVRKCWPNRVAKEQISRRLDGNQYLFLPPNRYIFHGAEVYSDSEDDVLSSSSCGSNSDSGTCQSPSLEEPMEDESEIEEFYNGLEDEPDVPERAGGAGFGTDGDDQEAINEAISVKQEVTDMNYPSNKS
Assay: Trp mass spectrometry assay of SIRT1 activation (Ac-R-H-K-K(Ac)-W-NH2 peptide)
Format: biochemical
Conditions: Trp peptide 0.5 μM, 120 μM βNAD+, 10 nM SIRT1, 25 min at 25° C.; for Emax: 25 min, relative to control (100%), read-out: TRP MAX RESP (percent maximum fold activation)
Protocol: The Trp mass spectrometry assay was conducted as follows. […] The SIRT1 protein was obtained by cloning the SirT1 gene into a T7-promoter containing vector, which was then expressed in BL21(DE3) bacterial cells and purified as described in further detail below. Test compound was added at varying concentrations to this reaction mixture and the resulting reactions were monitored. After the 25 minute incubation with SIRT1, 10 μL of 10% formic acid was added to stop the reaction. The resulting reactions were sealed and frozen for later mass spec analysis. The relative SIRT1 activity was then determined by measuring the amount of O-acetyl-ADP-ribose (OAADPR) formed (or, alternatively, the amount of deacetylated Trp peptide generated) by the NAD-dependent sirtuin deacetylation reaction in the presence of varying concentrations of the test compound versus control reactions lacking the test compound. The degree to which the test agent activated deacetylation by SIRT1 was expressed as EC1.5 (i.e., the concentration of compound required to increase SIRT1 activity by 50% over the control lacking test compound), and Percent Maximum Activation (i.e., the maximum activity relative to control (100%) obtained for the test compound).
This time point was the same as that used for test compounds and, within the linear range, the endpoint represents a change in velocity.
For the above assay, SIRT1 protein was expressed and purified as follows. The SirT1 gene was cloned into a T7-promoter containing vector and transformed into BL21(DE3). The protein was expressed by induction with 1 mM IPTG as an N-terminal His-tag fusion protein at 18° C. overnight and harvested at 30,000×g. Cells were lysed with lysozyme in lysis buffer (50 mM Tris-HCl, 2 mM Tris[2-carboxyethyl]phosphine (TCEP), 10 μM ZnCl2, 200 mM NaCl) and further treated with sonication for 10 min for complete lysis. The protein was purified over a Ni-NTA column (Amersham) and fractions containing pure protein were pooled, concentrated and run over a sizing column (Sephadex S200 26/60 global). The peak containing soluble protein was collected and run on an Ion-exchange column (MonoQ). Gradient elution (200 mM-500 mM NaCl) yielded pure protein. This protein was concentrated and dialyzed against dialysis buffer (20 mM Tris-HCl, 2 mM TCEP) overnight. The protein was aliquoted and frozen at −80° C. until further use.
“NT” means not tested; “ND” means not determinable.

SMILES | Emax | TRP Activity (EC1.5, concentration of test compound that results in 150% activation of SIRT1)
Cc1cc(C(=O)N[C@H](C)C(F)(F)F)nc2c1N1CC[C@@H](C1)N2C(=O)Nc1ccccn1 [Example 288, (4S)-9-methyl-N5-(pyridin-2-yl)-N7-((R)-1,1,1-trifluoropropan-2-yl)-3,4-dihydro-1,4-methanopyrido[2,3-b][1,4]diazepine-5,7(2H)-dicarboxamide] | > 150% | A (EC1.5<1 μM)
Cc1ncc(-c2ccnc(NC(=O)N3c4nc(C(=O)N[C@H](CO)C(F)(F)F)ccc4N4CC[C@H]3C4)c2)o1 (single isomer, unassigned) [Example 125] | > 150% | A (EC1.5<1 μM)
CC(C)(CO)NC(=O)c1ccc2c(n1)N(C(=O)Nc1ccccn1)[C@H]1CCN2C1 [Example 200, (4S)—N7-(1-hydroxy-2-methylpropan-2-yl)-N5-(pyridin-2-yl)-3,4-dihydro-1,4-methanopyrido[2,3-b][1,4]diazepine-5,7(2H)-dicarboxamide] | > 150% | B (EC1.5 1-25 μM)
O=C(NC1CC1(F)F)c1ccc2c(n1)N(C(=O)Nc1ccccn1)[C@H]1CCN2C1 (single isomer, unassigned) [Example 44] |  | A (EC1.5<1 μM)
O=C(NC[C@H](O)C(F)(F)F)c1ccc2c(n1)N(C(=O)Nc1cc(OC[C@H](O)CO)ccn1)[C@H]1CCN2C1 [Example 91, (4S)—N5-(4-((R)-2,3-dihydroxypropoxy)pyridin-2-yl)-N7-((S)-3,3,3-trifluoro-2-hydroxypropyl)-3,4-dihydro-1,4-methanopyrido[2,3-b][1,4]diazepine-5,7(2H)-dicarboxamide] | > 150% | A (EC1.5<1 μM)
NC[C@H](NC(=O)c1ccc2c(n1)N(C(=O)Nc1ccccn1)[C@H]1CCN2C1)C(F)(F)F (single isomer, unassigned) [Example 50] | > 150% | A (EC1.5<1 μM)
CC(C)(C)CNC(=O)c1ccc2c(n1)N(C(=O)Nc1ccc(F)cn1)[C@H]1CCN2C1 [Example 73, (4S)—N5-(5-fluoropyridin-2-yl)-N7-neopentyl-3,4-dihydro-1,4-methanopyrido[2,3-b][1,4]diazepine-5,7(2H)-dicarboxamide] | > 150% | A (EC1.5<1 μM)
C[C@@H](NC(=O)c1ccc2c(n1)N(C(=O)Nc1cc(C(=O)NCCO)ccn1)[C@H]1CCN2C1)C(F)(F)F [Example 131, (4S)—N5-(4-((2-hydroxyethyl)carbamoyl)pyridin-2-yl)-N7-((R)-1,1,1-trifluoropropan-2-yl)-3,4-dihydro-1,4-methanopyrido[2,3-b][1,4]diazepine-5,7(2H)-dicarboxamide] | > 150% | A (EC1.5<1 μM)
C[C@@H](NC(=O)c1ccc2c(n1)N(C(=O)Nc1cccnn1)[C@H]1CCN2C1)C(F)(F)F [Example 77, (4S)—N5-(pyridazin-3-yl)-N7-((R)-1,1,1-trifluoropropan-2-yl)-3,4-dihydro-1,4-methanopyrido[2,3-b][1,4]diazepine-5,7(2H)-dicarboxamide] | > 150% | A (EC1.5<1 μM)

The next lines start with the values.

Emax | TRP Activity (EC1.5, concentration of test compound that results in 150% activation of SIRT1) | SMILES
< 150% | A (EC1.5<1 μM) | Cc1ncc(-c2cc(NC(=O)N3c4nc(C(=O)N[C@H](C)C(F)(F)F)ccc4N4CC[C@H]3C4)ncn2)o1 [Example 318, (4S)—N5-(6-(2-methyloxazol-5-yl)pyrimidin-4-yl)-N7-((R)-1,1,1-trifluoropropan-2-yl)-3,4-dihydro-1,4-methanopyrido[2,3-b][1,4]diazepine-5,7(2H)-dicarboxamide]
> 150% | A (EC1.5<1 μM) | Cc1nc(NC(=O)N2c3nc(C(=O)N[C@H](C)C(F)(F)F)ccc3N3CC[C@H]2C3)co1 [Example 25, (4S)—N5-(2-methyloxazol-4-yl)-N7-((R)-1,1,1-trifluoropropan-2-yl)-3,4-dihydro-1,4-methanopyrido[2,3-b][1,4]diazepine-5,7(2H)-dicarboxamide]
> 150% | A (EC1.5<1 μM) | O=C(NCC1CC1)c1ccc2c(n1)N(C(=O)Nc1cccnn1)[C@H]1CCN2C1 [Example 96, (4S)—N7-(cyclopropylmethyl)-N5-(pyridazin-3-yl)-3,4-dihydro-1,4-methanopyrido[2,3-b][1,4]diazepine-5,7(2H)-dicarboxamide]
> 150% | A (EC1.5<1 μM) | O=C(N[C@H](C1CC1)C(F)(F)F)c1ccc2c(n1)N(C(=O)Nc1ccccn1)[C@H]1CCN2C1 [Example 46, (4S)—N7-((R)-1-cyclopropyl-2,2,2-trifluoroethyl)-N5-(pyridin-2-yl)-3,4-dihydro-1,4-methanopyrido[2,3-b][1,4]diazepine-5,7(2H)-dicarboxamide]
> 150% | A (EC1.5<1 μM) | C[C@@H](NC(=O)c1ccc2c(n1)N(C(=O)Nc1ncc(OC[C@H](O)CO)cn1)[C@H]1CCN2C1)C(F)(F)F [Example 173, (4S)—N5-(5-((R)-2,3-dihydroxypropoxy)pyrimidin-2-yl)-N7-((R)-1,1,1-trifluoropropan-2-yl)-3,4-dihydro-1,4-methanopyrido[2,3-b][1,4]diazepine-5,7(2H)-dicarboxamide]
 | B (EC1.5 1-25 μM) | NC(CNC(=O)c1ccc2c(n1)N(C(=O)Nc1ccccn1)[C@H]1CCN2C1)C(F)(F)F (single isomer, unassigned) [Example 249]
> 150% | B (EC1.5 1-25 μM) | O=C(NC[C@H]1CCCO1)c1ccc2c(n1)N(C(=O)Nc1ccccn1)[C@H]1CCN2C1 [Example 42, (4S)—N5-(pyridin-2-yl)-N7-(((R)-tetrahydrofuran-2-yl)methyl)-3,4-dihydro-1,4-methanopyrido[2,3-b][1,4]diazepine-5,7(2H)-dicarboxamide]
> 150% | A (EC1.5<1 μM) | C[C@@H](NC(=O)c1ccc2c(n1)N(C(=O)Nc1cncc(OC[C@H](O)CO)n1)[C@H]1CCN2C1)C(F)(F)F [Example 155, (4S)—N5-(6-((R)-2,3-dihydroxypropoxy)pyrazin-2-yl)-N7-((R)-1,1,1-trifluoropropan-2-yl)-3,4-dihydro-1,4-methanopyrido[2,3-b][1,4]diazepine-5,7(2H)-dicarboxamide]
> 150% | A (EC1.5<1 μM) | CC[C@H](C)NC(=O)c1ccc2c(n1)N(C(=O)Nc1ccccn1)[C@H]1CCN2C1 [Example 26, (4S)—N7-((S)-sec-butyl)-N5-(pyridin-2-yl)-3,4-dihydro-1,4-methanopyrido[2,3-b][1,4]diazepine-5,7(2H)-dicarboxamide]
